Measured values published in patent publication US9765063B2, “Amido compounds as RORγt modulators and uses thereof” (New York University, priority 2011, dated 2017).
“Also recorded” adds a separate entry of the source.

Assays:
[1] = test system: human Th1 cell differentiation; assay: Human Th1 cell differentiation, IFNγ production (counter-screen, FIG. 2); format: cell-based; settings: FIG. 2, FACS, 0.5 μM, naive CD4 T cells, IL12 and IL2; listed as NCGC00242624
Protocol: (§1) For Th1 differentiation, IL12 (10 ng/ml) and IL2 (100 U/ml) were added to naive CD4 T cell cultures instead of TGFβ and IL6.

[2] = test system: mouse Th17 cell differentiation; assay: Th17 assay: mouse Th17 polarization (IL-17a producing cells, FACS); format: cell-based
Protocol: (§2) Percentage of DMSO treated IL-17a producing cells was set at 100. Naive mouse CD4 T cells (CD25^−, CD62L^+, and CD44^low-int) were sorted and cultured with CD3/CD28 stimulatory antibodies in the presence of TGFβ (0.1 ng/ml) and IL6 (20 ng/ml). Compounds were added on Day 1 and cells were analyzed on Day 4. For intracellular cytokine staining, cells were incubated for 5 h with phorbol ester (50 ng/ml; Sigma), ionomycin (500 ng/ml; Sigma) and GolgiStop (BD). When needed, surfaces were stained by incubation for 15 min on ice with PECy7-conjugated CD4 (BD Biosciences). The Cytofix/Cytoperm buffer set (BD) was used for intracellular staining. Cells were fixed and made permeable for 30 min on ice and were stained for 30 min on ice in permeabilization buffer with Alexa647-conjugated anti-IL17a (eBioscience) and PE-conjugated anti-IFNg (eBioscience). An LSR II (BD Biosciences) and FlowJo software (Tree Star) were used for flow cytometry. RORg IC50 value acquired from the S2 cell reporter assay is listed for comparison.
as §2, with “With respect to the methodological details pertaining to FIG. 1, naive” for “Percentage of DMSO treated IL-17a producing cells was set at 100. Naive mouse”, “(BD).” for “(BD). When needed, surfaces were stained by incubation for 15 min on ice with PECy7-conjugated CD4 (BD Biosciences).”, “anti-IFNγ” for “anti-IFNg”, “cytometry.” for “cytometry. RORg IC50 value acquired from the S2 cell reporter assay is listed for comparison.”

RORγt = RORγt overexpression dependent IL17a production in human CD4 T cells (FIG. 3); format: cell-based; settings: FIG. 3, FACS, 0.5 μM; listed as NCGC00242624
Protocol: Briefly, CD3+ CD4+ CD45RA+ naive human T cells were isolated from peripheral blood derived from healthy donors. The naive T cells were cultured in XVIVO-20 (Lonza) medium for 7 days in the presence of IL2 and stimulatory CD3 and CD28 antibodies. Cells were infected with lentivirus encoding human RORα or RORγ and compound or DMSO was added on day 2. FACS plot analysis is shown after gating on GFP expressing (virus infected) cells.

[3] = Half-life in Human Liver Microsomes (HLM); format: in vitro ADME
Protocol: Test compounds (1 μM) are incubated with 3.3 mM MgCl2 and 0.78 mg/mL HLM (HL101) in 100 mM potassium phosphate buffer (pH 7.4) at 37° C. on the 96-deep well plate. The reaction mixture is split into two groups, a non-P450 and a P450 group. NADPH is only added to the reaction mixture of the P450 group. An aliquot of samples of the P450 group is collected at 0, 10, 30, and 60 min time points, where the 0 min time point indicated the lime at which NADPH is added into the reaction mixture of the P450 group. […] Collected aliquots are extracted with acetonitrile solution containing an internal standard. […] The compound concentration in supernatant is measured by LC/MS/MS system.
The half-life value is obtained by plotting the natural logarithm of the peak area ratio of compounds/internal standard versus time. The slope of the line of best fit through the points yields the rate of metabolism (k). This is converted to a half-life value using following equations: Half-life=ln 2/k

[4] = test system: human Th17 cell differentiation; assay: Human Th17 cell differentiation (FACS, FIG. 2); format: cell-based; settings: FIG. 2, FACS, 0.5 μM; listed as NCGC00242624
Protocol: • 1) S2 cell reporter system: Identified hits from HTS are further screened and their specificity confirmed by testing against RORγ-luc, VP16-luc, RORα-luc, and DHR3-luc reporter S2 cell lines. Compounds either having no activity on VP16, RORα, and DHR3 or having ten times higher IC50 values on such reporters are selected for further tests. • 2) Cytokine induced mouse Th17 cells differentiation. Effects on mouse endogenous RORγt in a relevant physiological setting were determined by testing compounds in the Th17 cell differentiation assay. Compounds having RORγt inhibitory activity are predicted to suppress Th17 cell differentiation. Th1 or regulatory T cell differentiation was used as a counter-screen method to select specific compounds that only affect Th17 cell differentiation without having pleiotrophic effects on general T cell proliferation or cytokine production. • 3) ROR dependent Th17 cell differentiation. Compounds were further tested, by examining their effects on T cells expressing RORα or RORγ. […] Compounds affecting IL17a production or ROR regulatory pathways, however, are expected to inhibit both. • 4) Human Th17 cell differentiation. Compound effects on human RORγt will be tested by treating human cord blood CD4 T cells with select compounds to determine if such compounds alter differentiation into Th17 lineages.
as §1

SMILES: COc1cc(O)c(C(CC(=O)N2CC(C)CC(C)C2)c2ccc(C(=O)O)cc2)c(OC)c1 (stereo not shown) [Compound 99, 4-(3-(3,5-Dimethylpiperidin-1-yl)-1-(2-hydroxy-4,6-dimethoxyphenyl)-3-oxopropyl)benzoic acid]
- Th1 cell differentiation, as measured by IFNγ production [1]: does not inhibit Th1 cell differentiation
- mouse Th17 cell differentiation, as measured by IL17a production ([2]; FIG. 1, FACS, at the indicated concentrations, listed as NCGC00242624): suppresses mouse Th17 cell differentiation with similar activity to NCGC00238427; also recorded: suppress mouse Th17 cell differentiation
- IC50 ([2]; naive mouse CD4 T cells, TGFβ and IL6, compounds added Day 1, analyzed Day 4, read-out: Th 17 IC50): 1 to 10 µM
- RORγt overexpression dependent IL17a production in human CD4 T cells (RORγt): selectively inhibit RORγt dependent; also recorded: selectively inhibits RORγt overexpression dependent IL17a production
- % Remaining @ 60 min ([3]; 1 μM compound, 0.78 mg/mL HLM, 37° C., 60 min): 51.36%
- stability compared with compounds 150 and 157 ([3]; HLM, Table 3 data): better or improved stability over the compounds with IDs 150 and 157
- stability compared with verapamil ([3]; HLM, Table 3 data): improved stability with respect to verapamil
- half-life at 1 μM ([3]; human, human liver microsomes, pH 7.4, 1 μM compound, 0.78 mg/mL HLM, 37° C., Half-life=ln 2/k): 1.07 h
- microsomal CLint at 1 μM ([3]; human, human liver microsomes, pH 7.4, 1 μM compound, 0.78 mg/mL HLM, 37° C., read-out: CLint (uM/Min/mg proteins)): 21.6 µL/min/mg
- human Th17 cell differentiation [4]: selectively suppress human Th17; also recorded: suppresses human Th17 cell differentiation to a degree similar to that of NCGC00238427; also recorded: selectively suppresses human Th17 cell differentiation
